Assays:
human DNA-PK = molecular target: T1, human DNA-PK (Homo sapiens, UniProt P78527); test: Standard DNA-PK assay (p53 peptide phosphorylation); assay type: biochemical; conditions: read-out: IC50 (nM) DNA-PK Assay
T1 construct: The frozen HeLa cell pellet was thawed at 37° C. and immediately centrifuged; endogenous in cells; host or cells: HeLa S3 cells (ATCC CCL-2.2); Endogenous enzyme purified via S100-2 fraction, Q-Sepharose FF and SP-Sepharose FF (fraction IV)
Protocol: Reactions were carried out at room temperature. Reactions were started by addition of ATP and stopped by application to phosphocellulose paper. Reaction products spotted onto phosphocellulose paper were washed five times with a total volume of at least 250 mL 10% acetic acid or 150 mM phosphoric acid. The paper was air dried and radioactivity was determined in a Beckman LS6000IC scintillation counter.

[1] = test system: MDA-MB231 (human breast carcinoma) cells; test: DNA double-strand break repair assay (pulse field electrophoresis); assay type: cell-based; conditions: 25 Gy; concentrations which enhanced radiation induced cell killing
Protocol: To further determine the cellular effect of DNA-PK inhibitors, an assay to measure chromosomal discontinuities was employed. Ionizing radiation induces chromosomal DNA double-strand breaks. Following high dose radiation, chromosomes can be extracted from cells and fractionated by pulse field electrophoresis to distinguish chromosomal fragments from intact larger chromosomes. Using this technique, the activity of DNA-PK inhibitors was measured.
MDA-MB231 (human breast carcinoma) cells were seeded onto T25 flasks with RPMI1640+10% FBS, 2 mM L-glutamine, penicillin G 100 U/ml-streptomycin sulfate 10 μg/ml, 1 mM Na pyruvate. When confluent, media was removed and replaced with media containing DNA-PK inhibitor or vehicle. Cells were incubated at 37° C. for 1 hr in a humidified chamber with 5% CO2. Media then was removed and flasks were filled with ice-cold D-PBS and either: (a) processed immediately; (b) irradiated (25 Gy in a ^137Cs Mark I irradiator at a flux of 335 rad/min) and processed immediately; (c) irradiated and incubated for 2 hr in complete RPMI1640+vehicle at 37° C. (in humidified 5% CO2 atmosphere to allow for DNA repair), or (d) irradiated and incubated for 2 hr in complete RPMI1640+DNA-PK inhibitor compound. […] Chromosomal DNA was visualized with SYBR-Gold (Molecular probes # S-11494) and the fluorescent image quantified on the STORM 860 (Molecular Dynamics).

[2] = test system: human colon carcinoma cell line HCT116; test: cells; assay type: cell-based
Protocol: Cells plated at a density of 5,000 to 20,000 per well in 96-well microtiter plates were grown in RMPI 1640 containing 10% FBS, 100 U/mL penicillin and 100 μg/mL streptomycin, for 18 h at 37° C. in a humidified incubator with 5% CO2. Cells tested included ACHN, 786-0, HCT-116, SW620, SK-MEL-5, SK-MEL-28, A549, H322, OVCAR-3, SK-OV-3, MCF-7, MDA-MB-231, MOLT4, HL60, SNB-19, PC-3. Cells were treated with media containing chemotherapeutic drugs alone or with media containing chemotherapeutic drugs and a DNA-PK inhibitor of the invention, 1-(2-hydroxy-4-morpholin-4-yl-phenyl)-ethanone. Cells were incubated for two days before growth was measured using a tetrazolium dye assay (MTS). Chemotherapeutic drugs included bleomycin etoposide, vinblastine, doxorubicin, paclitaxel, cisplatin, chlorambucil, cyclophosphamide, 5-fluorouracil, cytosine-arabinoside, 6-mercaptoguanine and methotrexate (all purchased from Sigma). The drug concentration necessary to inhibit cell growth to 50% of untreated control cells was defined as the GI50.

[3] = test system: HCT116 cells (human colon carcinoma) xenograft tumors; test: Animal tumor model, drug plus γ-radiation; assay type: in vivo, athymic BALB/c (nu/nu) mice; set-up: tumor growth with radiation plus drug: dose or concentration left out as unconfirmed
Protocol: HCT116 cells (human colon carcinoma) were used to propagate xenograft tumors in 6-8 week old female athymic BALB/c (nu/nu) mice. Mice were maintained in a laminar airflow cabinet under pathogen-free conditions and fed sterile food and water ad libitum. HCT116 cells were grown to subconfluence in McCoy's media supplemented with 10% FBS, 100 U/mL penicillin, 100 μg/mL streptomycin, and 1.5 mM L-glutamine in a 5% CO2 humidified environment. Single cell suspensions were prepared in CMF-PBS (0.9 mM KCl, 2.7 mM KH2PO4, 13.8 mM NaCl, pH 7.5), and cell concentration adjusted to 4×10^7 cells/mL. Mice were inoculated subcutaneously (s.c.) on the right flank or right leg with a total of 4×10^6 cells (100 μL).
Mice were randomized (5 mice/group) into four treatment groups and used when tumors reached a weight of 75 to 100 mg (usually 7 to 11 days post-inoculation). Tumors were measured with vernier calipers and tumor weights were estimated using the empirically-derived formula below. Tumor weight(mg)=tumor length(mm)×tumor width(mm)^2/3.3. […] Tumor size was monitored every other day for the duration of the experiment.

[4] = Pharmacokinetic analysis after subcutaneous administration; assay type: in vivo, mice
[5] = test system: Colon carcinoma cells (HCT116)
[6] = test system: thymocytes from BALB/c and BALB/c p53-/p53- mice; HL60, Jurkat, JY, B16/F10, WS1; test: Cell viability, trypan blue exclusion assay; assay type: cell-based, human and mouse; conditions: up to 32 μM (thymocytes), up to 25 μM (cell lines), several days
Protocol: Cell viability was also tested during drug treatment using the trypan blue exclusion assay. […] Cultured cells were incubated in the presence of varying concentrations of 2-hydroxy-4-morpholin-4-yl-benzaldehyde up to 32 μM. Cultured human and mouse cell lines were incubated in RPMI 1640 media containing 10% FBS, 100 U/mL penicillin and 100 μg/mL streptomycin at 37° C. with 5% CO2 in a humidified incubator with 2-hydroxy-4-morpholin-4-yl-benzaldehyde for several days. Tumor cell lines, HL60, Jurkat, JY and B16/F10 and the normal cell line WS1 were tested using this assay when incubated at drug concentrations up to 25 μM.

[7] = test system: DR3 cells (cultured mouse B-lymphocytes); test: V(D)J recombination assay; assay type: cell-based; conditions: 50 μM
Protocol: Recombination assays were performed as previously described (Leu et al., Mol. Cell. Biol 15:5657-5670 (1995)). […] Cells were concentrated and washed in HBS (containing 30 mM HEPES-KOH, pH 7.5, 140 mM NaCl, and 5 mM KCl) and resuspended in HBS at a density of 2.0×10^8 cells/mL. Cells (1.0×10^7) were transiently transfected by electroporation with 10 μg of the recombination substrate pJH200 (Leu et al., Mol. Cell. Biol. 15:5657-5670 (1995)) and transferred to a 90 mm cell culture dish containing 8 mL media with or without 2-hydroxy-4-morpholin-4-yl-benzaldehyde as described above. After 2 days, cells were removed from the dish with a rubber policeman, concentrated, washed one time with PBS, and resuspended in 0.1 mL lysis buffer (0.3% Triton X-100, 50 mM Tris-HCl, pH 7.5, 50 mM EDTA). Following a five min incubation at room temperature, cellular debris was removed by centrifugation at 12,000 rpm for two min in a microfuge. The supernatant was extracted sequentially with phenol and chloroform/[…] (24:1), after which, one tenth volume 3 M sodium acetate and 2 volumes cold 100% ethanol were added to the aqueous phase. Precipitated nucleic acid was collected by centrifugation at 12,000 rpm for 15 min and suspended in 25 μL water. An aliquot of the material was used to transform DH5α cells by electroporation. […]

[8] = test system: cultured human tumor cell lines (Table 4) and normal human fibroblast cell line MRC5; test: Cellular toxicity, MTS dye metabolism assay; conditions: 200 μM continuously for 48 h
Protocol: Cultured cells were distributed on 96-well microtiter plates and allowed to adhere for at least 16 h.

SMILES: CC(=O)c1ccc(N2CCOCC2)cc1O [Example 34, 1-(2-Hydroxy-4-morpholin-4-yl-phenyl)-ethanone]
- IC50 (human DNA-PK): 120 nM
- chromosomal DNA double-strand break repair [1]: inhibited DNA double-strand break repair
- GI50 (bleomycin) reduced ([2]; 100 μM inhibitor, two days): 7 fold
- potentiation of growth inhibitory effects of agents that do not induce DNA dsbs ([2]; vinblastine, doxorubicin, paclitaxel, cisplatin, cyclophosphamide, 5-fluorouracil, cytosine-arabinoside, 6-mercaptoguanine, methotrexate): did not potentiate
- chlorambucil GI50 reduced ([2]; with inhibitor, two days): 10 fold
- etoposide GI50 reduced ([2]; with inhibitor, two days): 10 fold
- tumor growth with radiation plus drug ([3]; 250 rad plus drug once daily for five days): no increase in tumor growth
- duration of high plasma concentration [4]: remained high for about one hour
- effect of drug alone on cell division [5]: no effect on cell division
- enhancement of etoposide LD50 [5]: 15 fold
- enhancement of etoposide LD90 [5]: 3 fold
- radiation LD50 lower than in the absence of drug ([5]; 200 μM): 4 fold
- radiation LD90 lower than without drug ([5]; 200 μM): 4 fold
- sensitivity of HCT116 to killing by γ-radiation ([5]; 200 μM): increased the sensitivity
- radiation dosage which kills 50% of the cells (LD50) in the presence of drug ([5]; 200 μM, 150 rad without drug): 35 rad
- radiation dose that kills 90% of the cells (LD90) with drug ([5]; 200 μM, 410 rad without drug): 100 rad
- D0, slope of the survival curve, with drug ([5]; 150 rad without drug): 50 rad

SMILES: O=Cc1ccc(N2CCOCC2)cc1O [Example 32, 2-Hydroxy-4-morpholin-4-yl-benzaldehyde]
- IC50 (human DNA-PK): 400 nM
- cells sensitive to killing, trypan blue exclusion method [6]: In no instances were cells sensitive to killing
- DNA rearrangement (V(D)J recombination) inhibited [7]: 8 fold
- tumors shrank ([3]; average tumor burden 500 mg, drug and 300 rad once daily for two days): greater than 10 fold
- duration of high plasma concentration [4]: remained high for about one hour
- sensitivity of HCT116 to killing by γ-radiation ([5]; 200 μM): increased the sensitivity
- killing of cell lines, MTS dye metabolism assay [8]: no evidence of killing

Reference: patent US8242115B2, “Materials and methods to potentiate cancer treatment” (Luitpold Pharmaceuticals, Inc., priority 2000, dated 2012)
